Assay results reported in patent US8211662B2, “Nitroreductase enzymatic substrates” (Biomerieux, priority 2007, dated 2012).

Columns and labels:
Assay in all cases: Nitroreductase detection on Columbia agar, colonies read under UV
[1] = system: Morganella morganii 462403 (wild); type: cell-based; design: key to Intensity of fluorescence, Morganella morganii 462403 / F: fluorescence (intensity), Morganella morganii 462403 (wild) / Intensity of the fluorescence, Morganella morganii 462403 (wild): − = no fluorescence detected; +/− = weak fluorescence; + = medium fluorescence; ++ = strong fluorescence; details: Table 3; 100 mg/l in Columbia agar, 24 h 37° C., UV 360-365 nm
Method: (§1) A mass of 40 mg of each substrate was dissolved in 4 ml of dimethylformamide (DMF). This solution was entirely taken up in 400 ml of Columbia agar autoclaved beforehand and kept molten at 50° C. The final concentration for each substrate was 100 mg/l.
(§2) Each of the media was distributed into Petri dishes 90 mm in diameter, in a proportion of 20 ml per dish.
(§3) 18 microorganism strains derived from collections and belonging to various species of bacteria and of yeasts were inoculated onto these media by semi-quantitative isolation of 10 μl of a suspension at 0.5 McFarland diluted to 1/20. The media were incubated for 24 hours at 37° C., then the colonies formed were examined visually under UV illumination at 360-365 nm.

[2] = system: Citrobacter freundii 46262 (wild); type: cell-based; design: key: − = no fluorescence detected; +/− = weak fluorescence; + = medium fluorescence; ++ = strong fluorescence; details: Table 3; 100 mg/l in Columbia agar, 24 h 37° C., UV 360-365 nm
Method: as §1, §2, §3

[3] = system: Streptococcus pyogenes NCTC 8306; type: cell-based; design: key: − = no fluorescence detected; +/− = weak fluorescence; + = medium fluorescence; ++ = strong fluorescence; details: Table 3; 100 mg/l in Columbia agar, 24 h 37° C., UV 360-365 nm
Method: as §1, §2, §3

[4] = system: Staphylococcus epidermidis NCTC 11047; type: cell-based; design: key: − = no fluorescence detected; +/− = weak fluorescence; + = medium fluorescence; ++ = strong fluorescence; details: Table 3; 100 mg/l in Columbia agar, 24 h 37° C., UV 360-365 nm
Method: as §1, §2, §3

[5] = system: Burkholderia cepacia 1222; type: cell-based; design: key: − = no fluorescence detected; +/− = weak fluorescence; + = medium fluorescence; ++ = strong fluorescence; details: Table 3; 100 mg/l in Columbia agar, 24 h 37° C., UV 360-365 nm
Method: as §1, §2, §3

[6] = system: Candida albicans ATCC 90028; type: cell-based; design: key: − = no fluorescence detected; +/− = weak fluorescence; + = medium fluorescence; ++ = strong fluorescence; details: Table 3; 100 mg/l in Columbia agar, 24 h 37° C., UV 360-365 nm
Method: as §1, §2, §3

[7] = system: Providencia rettgeri NCTC 7475; type: cell-based; design: key: − = no fluorescence detected; +/− = weak fluorescence; + = medium fluorescence; ++ = strong fluorescence; details: Table 3; 100 mg/l in Columbia agar, 24 h 37° C., UV 360-365 nm
Method: as §1, §2, §3

[8] = system: Yersinia enterocolitica NCTC 11176; type: cell-based; design: key: − = no fluorescence detected; +/− = weak fluorescence; + = medium fluorescence; ++ = strong fluorescence; details: Table 3; 100 mg/l in Columbia agar, 24 h 37° C., UV 360-365 nm
Method: as §1, §2, §3

[9] = system: Enterobacter cloacae NCTC 11936; type: cell-based; design: key: − = no fluorescence detected; +/− = weak fluorescence; + = medium fluorescence; ++ = strong fluorescence; details: Table 3; 100 mg/l in Columbia agar, 24 h 37° C., UV 360-365 nm
Method: as §1, §2, §3

[10] = system: Enterococcus faecium NCTC 7171; type: cell-based; design: key: − = no fluorescence detected; +/− = weak fluorescence; + = medium fluorescence; ++ = strong fluorescence; details: Table 3; 100 mg/l in Columbia agar, 24 h 37° C., UV 360-365 nm
Method: as §1, §2, §3

[11] = system: Pseudomonas aeruginosa NCTC 10662; type: cell-based; design: key: − = no fluorescence detected; +/− = weak fluorescence; + = medium fluorescence; ++ = strong fluorescence; details: Table 3; 100 mg/l in Columbia agar, 24 h 37° C., UV 360-365 nm
Method: as §1, §2, §3

[12] = system: Listeria monocytogenes NCTC 11994; type: cell-based; design: key: − = no fluorescence detected; +/− = weak fluorescence; + = medium fluorescence; ++ = strong fluorescence; details: Table 3; 100 mg/l in Columbia agar, 24 h 37° C., UV 360-365 nm
Method: as §1, §2, §3

[13] = system: Escherichia coli NCTC 10418; type: cell-based; design: key: − = no fluorescence detected; +/− = weak fluorescence; + = medium fluorescence; ++ = strong fluorescence; details: Table 3; 100 mg/l in Columbia agar, 24 h 37° C., UV 360-365 nm
Method: as §1, §2, §3

[14] = system: Enterococcus faecalis NCTC 775; type: cell-based; design: key: − = no fluorescence detected; +/− = weak fluorescence; + = medium fluorescence; ++ = strong fluorescence; details: Table 3; 100 mg/l in Columbia agar, 24 h 37° C., UV 360-365 nm
Method: as §1, §2, §3

[15] = system: Serratia marcescens NCTC 10211; type: cell-based; design: key: − = no fluorescence detected; +/− = weak fluorescence; + = medium fluorescence; ++ = strong fluorescence; details: Table 3; 100 mg/l in Columbia agar, 24 h 37° C., UV 360-365 nm
Method: as §1, §2, §3

[16] = system: Staphylococcus aureus NCTC 6571; type: cell-based; design: key: − = no fluorescence detected; +/− = weak fluorescence; + = medium fluorescence; ++ = strong fluorescence; details: Table 3; 100 mg/l in Columbia agar, 24 h 37° C., UV 360-365 nm
Method: as §1, §2, §3

[17] = system: Bacillus subtilis NCTC 9372; type: cell-based; design: key: − = no fluorescence detected; +/− = weak fluorescence; + = medium fluorescence; ++ = strong fluorescence; details: Table 3; 100 mg/l in Columbia agar, 24 h 37° C., UV 360-365 nm
Method: as §1, §2, §3

[18] = system: MRSA NCTC 11939; type: cell-based, Staphylococcus aureus; design: key: − = no fluorescence detected; +/− = weak fluorescence; + = medium fluorescence; ++ = strong fluorescence; details: Table 3; 100 mg/l in Columbia agar, 24 h 37° C., UV 360-365 nm
Method: as §1, §2, §3

[19] = system: Candida glabrata NCPF 3943; type: cell-based; design: key to Intensity of fluorescence, Candida glabrata NCPF3943 / F: fluorescence (intensity), Candida glabrata NCPF 3943 / Intensity of the fluorescence, Candida glabrata NCPF 3943: − = no fluorescence detected; +/− = weak fluorescence; + = medium fluorescence; ++ = strong fluorescence; details: 100 mg/l in Columbia agar, 24 h 37° C.
Method: as §1, §2, §3

[20] = system: Salmonella typhimurium NCTC 74; type: cell-based; design: key to Intensity of fluorescence, Salmonella typhimurium NCTC 74 / F: fluorescence (intensity), Salmonella typhimurium NCTC 74 / Intensity of the fluorescence, Salmonella typhimurium NCTC 74: − = no fluorescence detected; +/− = weak fluorescence; + = medium fluorescence; ++ = strong fluorescence; details: Table 3; 100 mg/l in Columbia agar, 24 h 37° C., UV 360-365 nm
Method: as §1, §2, §3

Compound: O=[N+]([O-])c1ccccc1-c1nc2ccccc2o1 [Substrate 1]
- F: fluorescence (intensity), Morganella morganii 462403 (wild) [1]: ++
- F: fluorescence (intensity), Citrobacter freundii 46262 (wild) [2]: ++
- F: fluorescence (intensity), Streptococcus pyogenes NCTC 8306 [3]: +
- F: fluorescence (intensity), Staphylococcus epidermidis NCTC 11047 [4]: +
- F: fluorescence (intensity), Burkholderia cepacia 1222 [5]: ++
- F: fluorescence (intensity), Candida albicans ATCC 90028 [6]: −
- F: fluorescence (intensity), Providencia rettgeri NCTC 7475 [7]: ++
- F: fluorescence (intensity), Yersinia enterocolitica NCTC 11176 [8]: ++
- F: fluorescence (intensity), Enterobacter cloacae NCTC 11936 [9]: ++
- F: fluorescence (intensity), Enterococcus faecium NCTC 7171 [10]: +
- F: fluorescence (intensity), Pseudomonas aeruginosa NCTC 10662 [11]: ++
- F: fluorescence (intensity), Listeria monocyto genes NCTC 11994 [12]: ++
- F: fluorescence (intensity), Escherichia coli NCTC 10418 [13]: ++
- F: fluorescence (intensity), Enterococcus faecails NCTC 775 [14]: ++
- F: fluorescence (intensity), Serratia marcescens NCTC 10211 [15]: ++
- F: fluorescence (intensity), Staphylococcus aureus NCTC 6571 [16]: ++
- F: fluorescence (intensity), Bacillus subtilis NCTC 9372 [17]: −
- F: fluorescence (intensity), MRSA NCTC 11939 [18]: ++
- G: growth, Candida glabrata NCPF 3943 [19]: No G
- F: fluorescence (intensity), Candida glabrata NCPF 3943 ([19]; Table 3, UV 360-365 nm): −
- F: fluorescence (intensity), Salmonella typhimurium NCTC 74 [20]: ++
